PubChem BioAssay (NCI)
Where “and” joins values, the source holds several entries; their conditions need not be identical. Equal values may be shown once.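 Compound exposure: 48 hours, 5 concentrations, 96-well plates. GI50 = concentration required for 50% inhibition of growth. TGI: concentration producing complete growth inhibition.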 Where a SMILES comes first, the peptide text is derived from it. Bridges are numbered along the chain shown (N, C = ends). [ ]: non-standard residue; d: D form. aThr = C[C@H](O)[C@H](N)C(=O)O

Assays:
Experiment in all cases: inhibition of tumour cell growth, NCI panel, 48 h
A549 NSCLC = tested on: A549 NSCLC
EKVX NSCLC = tested on: EKVX NSCLC
HCC-2998 colon = tested on: HCC-2998 colon
HCT-116 colon = tested on: HCT-116 colon
K-562 leukemia = tested on: K-562 leukemia
M14 melanoma = tested on: M14 melanoma
MOLT-4 leukemia = tested on: MOLT-4 leukemia
NCI-H522 lung = tested on: NCI-H522 lung
SF-268 CNS = tested on: SF-268 CNS
UO-31 renal = tested on: UO-31 renal

SMILES	GI50 (A549 NSCLC)	TGI (A549 NSCLC)	GI50 (EKVX NSCLC)	TGI (EKVX NSCLC)	GI50 (HCC-2998 colon)	TGI (HCC-2998 colon)	GI50 (HCT-116 colon)	TGI (HCT-116 colon)	GI50 (K-562 leukemia)	TGI (K-562 leukemia)	GI50 (M14 melanoma)	TGI (M14 melanoma)	GI50 (MOLT-4 leukemia)	TGI (MOLT-4 leukemia)	GI50 (NCI-H522 lung)	TGI (NCI-H522 lung)	GI50 (SF-268 CNS)	TGI (SF-268 CNS)	GI50 (UO-31 renal)	TGI (UO-31 renal)
Nc1nccc(-c2c(-c3ccc(F)cc3)nn3cc(C(F)(F)F)ccc23)n1	> 25 µM	> 25 µM	> 25 µM	> 25 µM	> 25 µM	> 25 µM	> 25 µM	> 25 µM	> 25 µM	> 25 µM	> 25 µM	> 25 µM	> 25 µM	> 25 µM	> 25 µM	> 25 µM	> 25 µM	> 25 µM	> 25 µM	> 25 µM
Cc1ccccc1C(CCCO)C(=O)O (stereo unspecified)		> 100 µM		> 100 µM				> 100 µM		> 100 µM		> 100 µM		> 100 µM		> 100 µM		> 100 µM		> 100 µM
C#Cc1ccc(-n2c(/C=C/c3ccc(O)cc3)nc3ncccc3c2=O)cc1	4.74 µM	> 100 µM			25.7 µM	> 100 µM	5.07 µM	> 100 µM	4.33 µM	> 100 µM	2.7 µM	8.08 µM	7.35 µM	> 100 µM	2 µM	6.04 µM	5.24 µM	68 µM	3.79 µM	33.7 µM
NC1=NC(Cn2nc(-c3ccccc3)c3ccccc3c2=O)=NNC(=O)N1		> 100 µM				> 100 µM		> 100 µM		> 100 µM		> 100 µM		> 100 µM		> 100 µM		> 100 µM		> 100 µM
O=[N+]([O-])c1ccc(-c2ccc(C3=Nn4c(CNc5ccccc5Cl)nnc4SC3)o2)cc1		> 100 µM				> 100 µM		> 100 µM		> 100 µM		> 100 µM		> 100 µM		> 100 µM		> 100 µM		> 100 µM
COc1ccc(-c2[nH]c3ccc(OC)cc3c2C=C(C#N)C#N)cc1	3.78 µM	> 100 µM					0.477 µM	> 100 µM	0.343 µM	> 100 µM	0.376 µM	> 100 µM		> 100 µM	> 100 µM	> 100 µM	1.67 µM	> 100 µM	> 100 µM	> 100 µM
Cc1ccc(S(=O)(=O)NCCCCC(N)C(=O)O)cc1 (stereo unspecified)		> 100 µM		> 100 µM				> 100 µM		> 100 µM		> 100 µM		> 100 µM		> 100 µM		> 100 µM		> 100 µM
Cc1nc2ccccc2c(=O)n1/N=C(\N=Nc1ccccc1Cl)c1ccccc1Cl		> 100 µM		> 100 µM				> 100 µM		> 100 µM		> 100 µM		> 100 µM		98.4 µM		> 100 µM		> 100 µM
S=C1SCN(Cc2ccccc2)CN1Cc1ccco1	23.3 µM	> 100 µM			16.6 µM	34.1 µM	1.47 µM	12.3 µM	3.62 µM	> 100 µM	4.04 µM	19.3 µM	5.91 µM	76 µM	2.59 µM	9.92 µM	3.59 µM	17.1 µM	4.56 µM	18.7 µM
CC(=O)Nc1ccc(C2CC(c3ccc([N+](=O)[O-])cc3)=Nc3ccccc3S2=O)cc1 (stereo unspecified)		> 100 µM		97.5 µM		30.5 µM				23.1 µM		> 100 µM		32.8 µM		34.7 µM		> 100 µM		46.5 µM
O=C(COc1ccc(/C=C2\Oc3ccccc3C2=O)cc1)Nc1nc2ccccc2s1	4.96 µM	> 72.7 µM	26.5 µM	> 100 µM	33.1 µM	> 100 µM	19.3 µM	> 100 µM	16.7 µM	> 100 µM	38.4 µM	> 100 µM			0.207 µM	0.487 µM			13 µM	> 57.6 µM
CC(=O)[CH-]C(=O)c1ccccc1.[C-]#[O+].[C-]#[O+].[Ir]	> 100 µM	> 100 µM	> 100 µM	> 100 µM	> 100 µM	> 100 µM													> 100 µM	> 100 µM
O=C(NCCc1ccccc1)C1C(=O)C(=O)N(CCc2ccccc2)C1=O (stereo unspecified)		> 100 µM		> 100 µM				> 100 µM		> 100 µM		> 100 µM		> 100 µM		> 100 µM		> 100 µM		> 100 µM
O=C(c1ccccc1)[C@H]1Nc2ccc(Cl)cc2[C@H]2CCC[C@@H]12		> 100 µM				> 100 µM		41.5 µM		64.5 µM		29.2 µM		86.8 µM		59.9 µM		> 100 µM		> 100 µM
CCOC(=O)C1(C)CCC(C(C(=O)O)C(=O)O)CC1=O (stereo unspecified)		> 100 µM		> 100 µM		> 100 µM		> 100 µM				> 100 µM		> 100 µM		> 100 µM		> 100 µM		> 100 µM
COCCN(Cc1ccc(F)cc1)c1ccc(CO)c(Cl)c1	10.4 µM	> 79.5 µM			24 µM	> 100 µM	0.821 µM	> 56.5 µM	10 µM	> 100 µM	38.9 µM	> 100 µM	34 µM	> 78.9 µM	39.1 µM	> 100 µM	50.6 µM	> 100 µM	15.5 µM	> 100 µM
COc1ccc(-c2nc3ccc(Cc4ccc5nc(-c6ccc(OC)cc6)[nH]c5c4)cc3[nH]2)cc1	0.0438 µM	0.237 µM			0.027 µM	0.188 µM	0.0339 µM	0.14 µM	< 0.01 µM	0.159 µM	< 0.01 µM	0.111 µM	< 0.01 µM	1.29 µM	0.0171 µM	0.0535 µM	0.0556 µM	1.85 µM	0.217 µM	2.09 µM

SMILES	GI50 (A549 NSCLC)	TGI (A549 NSCLC)	GI50 (EKVX NSCLC)	TGI (EKVX NSCLC)	GI50 (HCC-2998 colon)	TGI (HCC-2998 colon)	GI50 (HCT-116 colon)	TGI (HCT-116 colon)	GI50 (K-562 leukemia)	TGI (K-562 leukemia)	GI50 (M14 melanoma)	TGI (M14 melanoma)	GI50 (MOLT-4 leukemia)	TGI (MOLT-4 leukemia)	GI50 (NCI-H522 lung)	TGI (NCI-H522 lung)	GI50 (SF-268 CNS)	TGI (SF-268 CNS)	GI50 (UO-31 renal)	TGI (UO-31 renal)
OCC1CC[N-]CC1.OCC1CC[N-]CC1.[Cl][Pt+2]([Cl])([Cl])[Cl]	52.7 µM		30.7 µM		35.4 µM		25.6 µM	86.5 µM	35.9 µM		22.2 µM	65 µM			9.53 µM	46.3 µM	40.5 µM		31.2 µM	89.9 µM
c1ccc(C(c2ccccc2)c2ccccn2)cc1		> 100 µM		> 100 µM		> 100 µM		> 100 µM		> 100 µM		> 100 µM						> 100 µM		> 100 µM
COc1cc(OC)c(OC)cc1/C=C/c1nc2ccccc2s1		> 100 µM		> 100 µM		> 100 µM		> 100 µM				> 100 µM		> 100 µM		> 100 µM		> 100 µM		> 100 µM
CNCc1ccc(-c2cc(-c3nc(-c4ccc(S(=O)(=O)C(C)C)cc4)cnc3N)on2)cc1					2.48 µM	19.6 µM	1.08 µM	2.3 µM	1.05 µM	3.61 µM	1.18 µM	2.6 µM	0.376 µM	3.07 µM	14.7 µM	39.2 µM	1.41 µM	3.29 µM	1.35 µM	14 µM
O=C(CCCC(=O)Nc1ccc(Cl)cc1Cl)CC(=O)c1ccc2ccccc2c1		> 100 µM		> 100 µM		> 100 µM		> 100 µM		> 100 µM		> 100 µM		> 100 µM				> 100 µM		> 100 µM
Cc1ccc(NC(=O)c2cc(S(=O)(=O)Nc3nnc(-c4ccccc4)c(-c4ccccc4)n3)c(SCc3ccccc3)cc2Cl)cc1	18.4 µM	34.3 µM	18 µM	37.6 µM			28.5 µM	75.7 µM	23.8 µM	> 100 µM	34.8 µM	> 100 µM	> 100 µM	> 100 µM	42.4 µM	> 100 µM	20.2 µM	84.5 µM	25.3 µM	63.9 µM
OC(c1ccccc1Br)(c1ccccc1Br)C(F)(F)F		> 100 µM		> 100 µM		6.58 µM		39.4 µM				> 100 µM		31.6 µM		26.1 µM		43 µM		75.1 µM
COc1cc2nnc3c4cccnc4[nH]c3c2cc1OC	16 µM and 7.9 µM	50 µM and 31.7 µM	3.39 µM and 2.43 µM	50 µM and 8 µM	2.28 µM and 1.95 µM	13.6 µM and 3.79 µM	0.292 µM and 0.127 µM		0.577 µM	50 µM	8.18 µM and 1.79 µM	27.4 µM and 3.49 µM			1.65 µM and 2.05 µM	16.6 µM and 7.6 µM	1.48 µM and 0.535 µM	12.9 µM and 4.53 µM	1.52 µM and 0.486 µM	10.9 µM and 2.66 µM
CC12OC(=O)C(C#N)C1(C)C1C(=O)CCCC12 (stereo unspecified)		> 100 µM		> 100 µM				> 100 µM		> 100 µM		> 100 µM		> 100 µM				> 100 µM		> 100 µM
CCCCCCCCOCC(COC(=O)CCCCCCC)OC(=O)CCCCCCC (stereo unspecified)		> 100 µM				> 100 µM		> 100 µM		> 100 µM		> 100 µM		> 100 µM				> 100 µM		> 100 µM
C(=Nc1nc(SCc2ccccc2)nc2[nH]ncc12)c1cccs1	60 µM	> 100 µM	34.5 µM	> 100 µM	37.7 µM	> 100 µM			35 µM	> 100 µM	34.7 µM	> 100 µM	23.6 µM	85.9 µM	59.2 µM	> 100 µM	30.4 µM	> 100 µM	73.8 µM	> 100 µM
CC(C)C[C@@H]1NC(=O)[C@@H]2CCCN2C(=O)[C@@H]2CCCN2C(=O)[C@H](CC(C)C)NC(=O)[C@H](CO)NC(=O)[C@H](CCCCN)NC(=O)[C@H]([C@H](C)O)NC(=O)[C@@H]2CSSC[C@@H](NC1=O)C(=O)N[C@@H](Cc1ccccc1)C(=O)N1CCC[C@H]1C(=O)N[C@@H](CC(=O)O)C(=O)NCC(=O)N[C@@H](CCCN=C(N)N)C(=O)N2 (cyclo(C[aThr]KSLPPL[dC]FPDGR); disulfide 1-9)	> 50 µM	> 50 µM	> 50 µM	> 50 µM	> 50 µM	> 50 µM	> 50 µM	> 50 µM	> 50 µM	> 50 µM			> 50 µM	> 50 µM	> 50 µM	> 50 µM	> 50 µM	> 50 µM	> 50 µM	> 50 µM
CC(=O)Oc1c(C(=O)[O-])cc(C(C)C)cc1C(C)C.CC(=O)Oc1c(C(=O)[O-])cc(C(C)C)cc1C(C)C.CC(=O)Oc1c(C(=O)[O-])cc(C(C)C)cc1C(C)C.CC(=O)Oc1c(C(=O)[O-])cc(C(C)C)cc1C(C)C.[Cu+2].[Cu+2]	32.4 µM	> 100 µM	37.5 µM	73.2 µM			28.7 µM	> 100 µM			49.3 µM	> 100 µM	74.9 µM	> 100 µM	18.5 µM	33.3 µM	38.7 µM	> 100 µM	50.7 µM	> 100 µM
COc1ccc(/C=C2\C(=O)N(NC(C)=O)c3ccccc32)cc1		> 100 µM		> 100 µM		> 100 µM		> 100 µM		> 100 µM		> 100 µM		> 100 µM				> 100 µM		> 100 µM
CCc1ccc(Nc2cc(C)c3ccc(O)cc3n2)cc1					5.18 µM	17.4 µM	4.57 µM	17.4 µM	3.2 µM	15.4 µM	5.42 µM	18.1 µM	3.6 µM	19 µM			11.2 µM	30.3 µM	4.54 µM	23 µM
COc1cc(-c2nccc3[nH]c(-c4ccc5cc[nH]c5c4)nc23)cc(OC)c1OC	0.0113 µM	1.77 µM			< 0.01 µM	1.43 µM	< 0.01 µM	1.13 µM	< 0.01 µM	2.28 µM			< 0.01 µM	7.26 µM			< 0.01 µM	3.21 µM	< 0.01 µM	2.93 µM
